{"source": "ChEMBL document CHEMBL3621134", "about": "“Cyclic Peptides Incorporating Phosphotyrosine Mimetics as Potent and Specific Inhibitors of the Grb7 Breast Cancer Target” (J Med Chem, 2015)", "biological_target": "T1, Growth factor receptor-bound protein 10 (Homo sapiens, UniProt Q13322)", "T1 sequence (Q13322 whole entry)": "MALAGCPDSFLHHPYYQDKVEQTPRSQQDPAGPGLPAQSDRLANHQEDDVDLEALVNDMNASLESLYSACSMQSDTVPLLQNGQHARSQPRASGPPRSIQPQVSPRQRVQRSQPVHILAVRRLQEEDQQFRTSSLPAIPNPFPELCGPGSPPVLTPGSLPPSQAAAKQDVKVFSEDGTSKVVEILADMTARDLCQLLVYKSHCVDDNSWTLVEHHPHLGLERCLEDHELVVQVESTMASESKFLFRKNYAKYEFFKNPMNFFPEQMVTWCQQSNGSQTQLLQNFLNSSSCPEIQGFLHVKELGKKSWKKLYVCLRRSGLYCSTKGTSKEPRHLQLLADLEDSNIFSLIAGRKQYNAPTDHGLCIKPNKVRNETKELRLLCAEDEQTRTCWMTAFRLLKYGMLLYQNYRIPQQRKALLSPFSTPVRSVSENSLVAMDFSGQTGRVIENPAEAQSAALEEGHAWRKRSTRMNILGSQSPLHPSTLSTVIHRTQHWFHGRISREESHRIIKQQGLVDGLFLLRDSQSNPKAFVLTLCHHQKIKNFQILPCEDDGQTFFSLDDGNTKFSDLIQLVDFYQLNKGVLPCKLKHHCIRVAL", "assay": "Binding affinity to GST-tagged Grb10-SH2 domain (471 to 594 amino acid residues) (unknown origin) expressed in Escherichia coli BL21 (DE3) using 20 mM Tris/1 mM NaPO4 buffer by SPR analysis; call rule not given here"}
{"smiles": "C[C@@H](O)[C@@H]1NC(=O)[C@H](CC(N)=O)NC(=O)[C@H](CC(=O)O)NC(=O)[C@H](Cc2ccc(O)cc2)NC(=O)CNC(=O)[C@H](CCC(=O)O)NC(=O)[C@H](Cc2ccccc2)NC(=O)[C@H](Cc2c[nH]c3ccccc23)NC(=O)CSC[C@@H](C(N)=O)NC(=O)[C@@H]2CCCN2C(=O)[C@H](Cc2ccccc2)NC1=O", "values": [{"measurement": "Kd", "value": "Not Active"}]}
